Results published in PubChem BioAssay (NCI).
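Abbreviation: GI50, concentration required for 50% inhibition of growth. Definition used: TGI = concentration required for complete inhibition of growth.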

What was measured:
Experiment in all cases: growth of human tumour cells (NCI), 384-well format
[1] = system: MALME-3M melanoma
[2] = system: OVCAR-3 ovarian
[3] = system: NCI/ADR-RES ovarian
[4] = system: UACC-62 melanoma
[5] = system: LOX IMVI melanoma
[6] = system: K-562 leukemia
[7] = system: SF-295 CNS
[8] = system: MDA-MB-435 melanoma
[9] = system: SN12C renal
[10] = system: T-47D breast
[11] = system: SK-MEL-28 melanoma
[12] = system: PC-3 prostate
[13] = system: MDA-MB-468 breast
[14] = system: A549 NSCLC
[15] = system: CAKI-1 renal
[16] = system: KM12 colon
[17] = system: MDA-MB-231 breast
[18] = system: HOP-62 NSCLC
[19] = system: COLO 205 colon
[20] = system: BT-549 breast
[21] = system: OVCAR-8 ovarian
[22] = system: UACC-257 melanoma
[23] = system: NCI-H322M lung
[24] = system: A498 renal
[25] = system: OVCAR-4 ovarian
[26] = system: NCI-H460 NSCLC
[27] = system: ACHN renal
[28] = system: SF-268 CNS
[29] = system: 786-0 renal
[30] = system: HT29 colon
[31] = system: SNB-19 CNS
[32] = system: TK-10 renal
[33] = system: M14 melanoma
[34] = system: HCC-2998 colon
[35] = system: IGROV1 ovarian
[36] = system: OVCAR-5 ovarian
[37] = system: MCF7 breast
[38] = system: SR leukemia
[39] = system: CCRF-CEM leukemia
[40] = system: SK-OV-3 ovarian
[41] = system: HS 578T breast
[42] = system: SF-539 CNS
[43] = system: EKVX NSCLC
[44] = system: SK-MEL-5 melanoma
[45] = system: NCI-H23 lung
[46] = system: DU-145 prostate
[47] = system: RXF 393 renal
[48] = system: HOP-92 NSCLC
[49] = system: SNB-75 CNS
[50] = system: HCT-15 colon
[51] = system: SW-620 colon
[52] = system: RPMI-8226 leukemia
[53] = system: UO-31 renal
[54] = system: HL-60(TB) leukemia
[55] = system: NCI-H522 lung
[56] = system: MOLT-4 leukemia
[57] = system: NCI-H226 lung
[58] = system: U251 glioblastoma

`O=C(NCC(F)(F)F)Nc1cccc(-c2cnc3cc(-c4ccc(F)cc4)ccn23)c1` showed a GI50 [1] of 498 nM, a TGI [1] of 14500 nM and a GI50 [2] of 484 nM. It also gave a TGI [2] of 2250 nM, a GI50 [3] of 1510 nM and a TGI [3] of 3730 nM. It also gave a GI50 [4] of 559 nM, a TGI [4] of 12400 nM and a GI50 [5] of 741 nM. For the same compound, the TGI [5] was 8310 nM, the GI50 [6] was 362 nM and the TGI [6] was 1200 nM. For the same compound, the GI50 [7] was 1130 nM, the TGI [7] was 4390 nM and the GI50 [8] was 210 nM. The TGI [8] was 457 nM, the GI50 [9] was 756 nM and the TGI [9] was 4530 nM. For the same compound, the GI50 [10] was 862 nM, the TGI [10] was 7450 nM and the GI50 [11] was 2320 nM. It also gave a TGI [11] of 17900 nM, a GI50 [12] of 2300 nM and a TGI [12] of 10800 nM. For the same compound, the GI50 [13] was 250 nM, the TGI [13] was 568 nM and the GI50 [14] was 1080 nM. For the same compound, the TGI [14] was 12900 nM, the GI50 [15] was 1110 nM and the TGI [15] was 12500 nM. For the same compound, the GI50 [16] was 400 nM, the TGI [16] was 11900 nM and the GI50 [17] was 650 nM. For the same compound, the TGI [17] was 19300 nM, the GI50 [18] was 688 nM and the TGI [18] was 11000 nM. It also gave a GI50 [19] of 451 nM, a TGI [19] of 3530 nM and a GI50 [20] of 324 nM. It also gave a TGI [20] of 2130 nM, a GI50 [21] of 2480 nM and a TGI [21] of 12100 nM. It also gave a GI50 [22] of 1850 nM, a TGI [22] of 14600 nM and a GI50 [23] of 3680 nM. The TGI [23] was 21200 nM, the GI50 [24] was 769 nM and the TGI [24] was 10300 nM. It also gave a GI50 [25] of 571 nM, a TGI [25] of 5640 nM and a GI50 [26] of 408 nM. For the same compound, the TGI [26] was 10400 nM, the GI50 [27] was 2790 nM and the TGI [27] was 12900 nM. The GI50 [28] was 1810 nM, the TGI [28] was 9050 nM and the GI50 [29] was 1080 nM. The TGI [29] was 5810 nM, the GI50 [30] was 367 nM and the TGI [30] was 1570 nM. For the same compound, the GI50 [31] was 1460 nM, the TGI [31] was 6950 nM and the GI50 [32] was 2210 nM. The TGI [32] was 13100 nM, the GI50 [33] was 569 nM and the TGI [33] was 5670 nM. For the same compound, the GI50 [34] was 705 nM, the TGI [34] was 9270 nM and the GI50 [35] was 1400 nM. For the same compound, the TGI [35] was 10500 nM, the GI50 [36] was 4040 nM and the TGI [36] was 25500 nM. The GI50 [37] was 804 nM, the TGI [37] was 12500 nM and the GI50 [38] was 148 nM. The TGI [38] was 309 nM, the GI50 [39] was 734 nM and the TGI [39] was 2030 nM. It also gave a GI50 [40] of 631 nM, a TGI [40] of 7870 nM and a GI50 [41] of 655 nM. For the same compound, the TGI [41] was 2250 nM, the GI50 [42] was 832 nM and the TGI [42] was 2540 nM. The GI50 [43] was 1900 nM, the TGI [43] was 16800 nM and the GI50 [44] was 444 nM. For the same compound, the TGI [44] was 9920 nM, the GI50 [45] was 1020 nM and the TGI [45] was 3560 nM. For the same compound, the GI50 [46] was 3130 nM, the TGI [46] was 18400 nM and the GI50 [47] was 1490 nM. It also gave a TGI [47] of 7290 nM, a GI50 [48] of 1710 nM and a TGI [48] of 8880 nM. The GI50 [49] was 376 nM, the TGI [49] was 2090 nM and the GI50 [50] was 358 nM. It also gave a TGI [50] of 1610 nM, a GI50 [51] of 433 nM and a TGI [51] of 10500 nM. It also gave a GI50 [52] of 575 nM, a TGI [52] of 1830 nM and a GI50 [53] of 4680 nM. It also gave a TGI [53] of 19500 nM, a GI50 [54] of 321 nM and a TGI [54] of 853 nM. It also gave a GI50 [55] of 292 nM, a TGI [55] of 899 nM and a GI50 [56] of 219 nM. The TGI [56] was 391 nM, the GI50 [57] was 1030 nM and the TGI [57] was 8570 nM. It also gave a GI50 [58] of 1390 nM and a TGI [58] of 12200 nM.
